The conditions of series [1]: for Normal melting temperature: Crystal 1, visual observation.
A short description of series [2]: Molar enthalpy of transition or fusion. Particulars: Crystal.

± gives the expanded uncertainty stated by the source.

Consider `Cc1nc2ccccc2[nH]1` [2-methylbenzimidazole], for which the Normal melting temperature in series [1] is 178.28 ± 0.5 °C.

Regarding `Cc1ncc[nH]1` [2-methylimidazole], in series [1], the Normal melting temperature came out at 146 ± 0.5 °C.

In the case of `c1ccc(-c2nc[nH]c2-c2ccccc2)cc1` [4,5-diphenylimidazole], in series [1] (Crystal), the Triple point temperature is given as 504.84 ± 1 K. In series [2], the “Molar enthalpy of transition or fusion” value stood at 8.17 ± 0.454 kcal/mol.

Regarding `c1ccc2[nH]cnc2c1` [benzimidazole], in series [1], the Normal melting temperature amounted to 172.36 ± 0.5 °C.

Values taken from the NIST ThermoML archive (doi:10.1021/je049907t).
